Laboratory results reported in patent publication US20200262877A1, “ION CHANNEL-BINDING PEPTIDES AND METHODS OF USE THEREOF” (priority 2017, published 2020).

System: panel of 20 ion channels
Format: cell-based
Details: potassium channels of the panel; 0.2 or 20 μM; FIG. 2
Protocol: This example describes a method for assaying ion channel activity in cells.
Peptides were screened in duplicate at final concentrations of 20 μM and 200 nM, as determined by amino acid analysis, and diluted into HEPES buffered physiological saline (HBPS). HEK293 or CHO cells from the American Type Culture Collection (ATCC) were transfected with the appropriate ion channel before use. HEK293 cells were grown in Dulbecco's Modified Eagle Medium/Nutrient Mixture F-12, and CHO cells were cultured in Ham's F-12 media. All cultures were supplemented with 10% fetal bovine serum, 100 U/ml penicillin G, 100 μg/ml streptomycin sulfate, and the appropriate selection antibiotics. Prior to use, cells were washed twice with Hank's Balanced Salt Solution, and treated with Accutase cell detachment solution (Sigma-Aldrich). Cells were then washed. Peptides and controls were incubated with cells for at least five minutes.
Percent inhibition was defined as: (1-(Ipeptide/Icontrol))×100%).
Percent values were calculated using the following formula: % activation=(IPeptide/Icontrol)×100%, where IPeptide is the current produced by co-application a peptide with agonist, and Icontrol refers to the current produced by stimulation in control. Control used for each ion channel is the reference compound matched to a particular channel, as illustrated in TABLE 10 below.

Sequence	Activity on potassium channels
GSQIDTNVKCSGSSKCVKICIDRYNTRGAKCINGRCTCYP [SEQ ID NO: 20]	showed activity on various subsets of potassium channels
GSVVIGQRCYRSPDCYSACKKLVGKATGKCTNGRCDC [SEQ ID NO: 26]	showed activity on various subsets of potassium channels
